Results from patent US12571801B2, “Tandem activity-based sensing and labeling strategy for reactive oxygen species imaging” (The Regents of the University of California, priority 2021, dated 2026).

Experiments:
A431 cells = assay: Imaging of endogenous H2O2 in EGF-stimulated A431 cells; format: cell-based
Experimental: (A) Confocal microscopy (top row) and overlaid brightfield (bottom row) images of A431 cells stained with PG1-FM (10 μM) and then treated with EGF (1 μg/mL) or vehicle control for 30 min, washed and imaged, or first pre-treated with NADPH oxidase inhibitor DPI (5 μM) or antioxidant ebselen (5 μM) for 30 min in HBSS solution before PG1-FM staining and EGF stimulation. (B) Quantification of experiments.

RAW 264.7 macrophages = assay: Imaging and flow cytometry of endogenous H2O2 in PMA-stimulated RAW264.7 macrophages; format: cell-based, mouse; settings: for probe fluorescence in PMA-treated RAW 264.7 cells vs control: probe 10 μM, PMA 1 μg/mL 60 min, confocal microscopy and flow cytometry
Experimental: (A) Confocal microscopy (top row) and overlaid brightfield (bottom row) images of RAW264.7 macrophages stained with PG1-FM (10 μM) and then treated with PMA (1 μg/mL) or vehicle control for 60 min, washed and imaged, or first pre-treated with NADPH oxidase inhibitor DPI (5 μM) or antioxidant ebselen (5 μM) for 30 min in HBSS solution before PG1-FM staining and PMA stimulation. (B) Flow cytometry histograms and (C) quantification of mean value fluorescence intensity using PG1-FM under same conditions as (A). (D) Confocal microscopic images of RAW264.7 macrophages stained with PR1-FM (10 μM) under same conditions as (A). **P<0.01.
We next tested the ability of PG1-FM and PR1-FM to monitor H2O2 production in RAW 264.7 macrophages.
RAW264.7 cells were plated on a μ-slide 8 well (ibidi) and cultured at 37° C. overnight in a 5% CO2 incubator. The cells were pretreated with inhibitors, DPI (5 μM) or Ebselen (10 μM), for 30 min in HBSS. Afterward, the cells were co-incubated with PG1-FM (10 μM) and PMA (1 μg/mL) with or without DPI or Ebselen. The cells were observed on confocal microscope after washing with HBSS twice.
RAW264.7 cells were plated on a 6 well plate and cultured at 37° C. overnight in a 5% CO2 incubator. The cells were pretreated with inhibitors, DPI (5 μM) or Ebselen (10 μM), for 30 min in HBSS. Afterward, the cells were co-incubated with PG1-FM (5 μM) and PMA (1 μg/mL) with or without DPI or Ebselen. The cells were harvested by 0.05% Trypsin with EDTA, filtered, and analyzed with flow cytometer.

zebrafish = assay: In vivo live imaging of endogenous H2O2 in zebrafish, tail fin cut model
Experimental: FIG. 6. Confocal microscopic images of zebrafish labeled with PR1-FM. Zebrafish embryos in E3 medium containing P1-FM (5 μM) were incubated overnight. The fishes were additionally incubated for 1 hour with containing DPI (100 nM) before the tail fin cut.
We sought to apply PR1-FM for in vivo live imaging to detect endogenous hydrogen peroxide production. PR1-FM was tested with live zebrafish in the regenerated fin model. The larvae at two days post-fertilization (dpf) was pre-stained with PR1-FM (5 μM) overnight before tail fin cut. […] Taken together, PR1-FM can be useful for detecting hydrogen peroxide in live zebrafish.

HeLa cells [1] = assay: Imaging of mitochondrial H2O2 in HeLa cells treated with Antimycin or Rotenone; format: cell-based
Experimental: FIGS. 7A-B. Confocal microscopic images of HeLa cell stained with MitoPY1-FM. (A) HeLa cell was stained with MitoPY1-FM (5 μM) for 1 h. After washing the cell with non-FBS medium, the cell was treated with Antimycin (1 μM) or Rotenone (1 μM) for 24 h. The cells were observed on confocal microscope after washing the cell. (B) Confocal microscopic images of fixed HeLa cell stained with MitoPY1-FM and Tom 20 antibody. HeLa cells were stained with MitoPY1-FM and then exposed with antimycin A. The treated cells were fixed and stained with Tom 20 antibody before the observation.
We evaluated MitoPY1-FM for imaging mitochondrial H2O2 fluxes produced by inhibition of mitochondrial electron transporter chain. HeLa cells were pre-stained with MitoPY1-FM (5 μM) and stimulated by Antimycin (1 μM) or Rotenone (1 μM) for 24 h to induce ROS and oxidative stress.

[2] = target: bovine serum albumin (BSA) (Bos taurus, UniProt P02769); assay: H2O2-dependent activity-based labeling of BSA, SDS-PAGE; format: biochemical; settings: BSA 0.5 mg/mL, with or without H2O2 (100 μM)
bovine serum albumin (BSA), sequence (P02769 25-607): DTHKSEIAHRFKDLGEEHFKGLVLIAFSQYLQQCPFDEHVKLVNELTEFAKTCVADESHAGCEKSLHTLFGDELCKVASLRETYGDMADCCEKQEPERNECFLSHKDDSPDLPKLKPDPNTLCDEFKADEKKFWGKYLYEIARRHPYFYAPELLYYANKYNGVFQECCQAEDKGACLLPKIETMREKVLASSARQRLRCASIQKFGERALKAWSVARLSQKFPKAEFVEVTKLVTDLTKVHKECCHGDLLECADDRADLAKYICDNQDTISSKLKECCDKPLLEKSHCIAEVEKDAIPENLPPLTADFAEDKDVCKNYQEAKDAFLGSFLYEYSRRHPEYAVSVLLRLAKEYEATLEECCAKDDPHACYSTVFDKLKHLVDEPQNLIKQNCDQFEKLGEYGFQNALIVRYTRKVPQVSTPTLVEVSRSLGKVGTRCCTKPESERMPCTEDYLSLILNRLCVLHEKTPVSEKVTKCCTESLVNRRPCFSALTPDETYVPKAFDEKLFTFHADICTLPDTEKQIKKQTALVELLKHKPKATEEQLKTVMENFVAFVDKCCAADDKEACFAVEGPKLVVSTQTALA
Experimental: (§1) FIGS. 1A-I. Fluorescence responses and activity-based sensing and labeling properties of PG1-FM, MitoPY1-FM, and PR1-FM. (A, B, C) Activity-based sensing fluorescence responses of 1 μM PG1-FM (A), 1 μM MitoPY1-FM (B), and 1 μM PR1-FM (C) to 25 μM H2O2. Data were acquired in PBS (pH 7.4) at 37° C. (D, E, F) Fluorescence responses of 1 μM PG1-FM (D), 1 μM MitoPY1-FM (E), and 1 μM PR1-FM (F) towards biologically relevant competing reactive oxygen species and reactive nitrogen species. (G, H, I) H2O2-dependent activity-based labeling of PG1-FM (G), MitoPY1-FM (H), and PR1-FM (I) to BSA. A solution of BSA (0.5 mg/mL) and PG1-FM (1 μM), MitoPY1-FM (1 μM), and PR1-FM (1 μM) in PBS (pH 7.4) was incubated with or without H2O2(100 μM) and analyzed by SDS-PAGE gel.
(§2) We first evaluated the in vitro response of PG1-FM, MitoPY1-FM, and PR1-FM to hydrogen peroxide in aqueous solution buffered to physiological pH. […] PG1-FM converted to a fluorescent product that undergoes subsequent hydrolysis with H2O by LC analysis (FIG. 9A-B). […] To establish activity-based labeling of PG1-FM, MitoPY1-FM, and PR1-FM in a H2O2-dependent manner, we incubated the probes with bovine serum albumin (BSA) as a model protein substrate in the presence or absence of H2O2, and the reactions were analyzed by SDS-PAGE.
PG1-FM (10 μM) and BSA (0.5 mg/mL) were incubated at 25° C. for 1 h with or without H2O2 (100 μM). Afterward, Ebselen (100 μM) was added to the mixture to quench excess of H2O2. The obtained samples were separated with Novex™ Mini Gel (Thermo). The gel was first analyzed by ChemiDoc™ MP (Bio-Rad) to take a fluorescence images, and stained with Coomassie brilliant blue (CBB) Solution

[3] = ROS selectivity analysis (fluorescence response to competing ROS/RNS); settings: 1 μM probe; OCl−, TBHP, O2−, ONOO−, NO; PBS
Experimental: as §1
FIG. 8. Fluorescence spectra of PG1-FM reacted with […] of OCl^−, TBHP, O2^−, ONOO^−, NO or PBS (control). PG1-FM (1 μM) was incubated with […] of H2O2, OCl^−, TBHP, O2^−, ONOO^−, or NO at 37° C. in PBS (−). The mixtures were measured by fluorometer at any incubating times (0, 5, 15, 30, 45, and 60 min).
(§3) PG1-FM was dissolved in DMSO to obtain a 1 mM stock solution. The fluorescence spectra of PG1-FM (1 μM) were measured in PBS (−) containing 25 μM of H2O2, OCl^−, TBHP, O2^−, ONOO^−, or NO OCl^−, O2^−, ONOO^−, or NO were generated by using NaOCl (Fluka), potassium superoxide (SIGMA), Peroxynitrite (Cayman), and PROLI NONOate (Cayman), respectively. The fluorescence spectra of PG1-FM were collected an emission window between 500 nm to 650 nm with excitation at 488 nm.

[4] = Fluorescence response of probes to H2O2 in buffer; settings: 1 μM probe, 25 μM H2O2, PBS (pH 7.4), 37° C.
Experimental: as §1, §2, §3

HeLa cells [5] = assay: Confocal imaging of exogenous H2O2 in live HeLa cells; format: cell-based; settings: 5 μM probe; for probe fluorescence in HeLa cells on exogenous H2O2 treatment: H2O2 (1 mM) 60 min vs vehicle, confocal
Experimental: FIGS. 2A-C. Exogenous H2O2 detection. Confocal microscopic images of HeLa cell stained with PG1-FM, PR1-FM, and MitoPY1-FM. (A, B) HeLa cells were pe-stained with PG1-FM (5 μM) or PR1-FM (5 μM) at 37° C. in a 5% CO2 incubator. After incubating for 30 min, the cells were washed with HBSS twice, and treated with H2O2 (1 mM) for 60 min. The cells were observed on confocal microscope after washing with HBSS twice. (C) HeLa cells were pe-stained with MitoPY1-FM (5 μM) at 37° C. in a 5% CO2 incubator. After incubating for 30 min, the cells were washed with HBSS twice, and treated with H2O2 (1 mM) for 60 min. The cells were observed on confocal microscope after staining with MitoBright LT Green for 30 mi. Scale bar: 50 μm.
We next assessed the ability of PG1-FM, MitoPY1-FM, and PR1-FM for visualizing changes in H2O2 levels in live cells with exogenous H2O2 treatment. HeLa cells were pre-stained with 5 μM of PG1-FM, MitoPY1-FM, or PR1-FM, treated with H2O2 (1 mM) or vehicle control, washed, and imaged. MitoPY1-FM stained HeLa cells were co-stained with MitoBright LT Green before imaging. […] We observed that the probes load evenly throughout the cell and responds to elevations in H2O2(FIGS. 2A, 2B, and 2C).
Cells were grown at the UC Berkeley Tissue Culture Facility. HeLa, RAW264.7, and A431 cells were cultured in DMEM (high glucose) supplemented with 10% (v/v) fetal bovine serum, GlutaMAX, and NEAA. All cells were maintained in a humidified 5% CO2 incubator at 37° C.

HeLa cells [6] = assay: Imaging and flow cytometry of endogenous H2O2 in paraquat-treated HeLa cells; format: cell-based; settings: paraquat 1 mg/mL 24 h; confocal microscopy, verified by flow cytometry
Experimental: FIGS. 3A-C. PG1-FM imaging of endogenous H2O2 generation in live HeLa cells under oxidative stress conditions stimulated by paraquat. (A) Confocal microscopy images of HeLa cells treated with or without paraquat (1 mg/mL) for 24 h, stained with PG1-FM (10 μM) for 1 h, washed twice with HBSS, and imaged. Scale bar: 50 μm. (B) Flow cytometry analysis of the cells treated with or without paraquat using PG1-FM using same conditions as (A). (C) Flow cytometric data quantified with mean value. **P<0.01.
We next utilized PG1-FM for imaging endogenous H2O2 fluxes produced by multiple types of cell models under various stimulation conditions. Our first set of experiments along these lines evaluated the performance of the probe under conditions of oxidative stress induced by paraquat treatment. HeLa cells were stimulated with or without paraquat (1 mg/mL) for 24 h to induce ROS and oxidative stress, followed by staining with PG1-FM for 30 min, washing, and imaging. […] Because the probe is cell-trappable, we verified the observed fluorescence enhancements using flow cytometry (FIG. 3B, 3C), highlighting its utility in this analytical method as well.

SMILES: c1ccc2c(c1)[I+]c1ccccc1-2 [DPI, diphenyleneiodonium, reference compound]
- effect of inhibitor on H2O2-induced PG1-FM fluorescence in EGF-stimulated A431 cells (A431 cells; inhibitor 5 μM pre-treatment 30 min): inhibited H2O2-induced enhancements in PG1-FM fluorescence
- effect of inhibitor on PMA-induced probe fluorescence increase in RAW 264.7 cells (RAW 264.7 macrophages; inhibitor pre-treatment 30 min in HBSS): fluorescence increases are blocked
- effect of inhibitor on PR1-FM fluorescence in zebrafish after tail fin cut (zebrafish; DPI 100 nM, 1 hour before the tail fin cut): lower level of fluorescence

SMILES: CC1(C)OB(c2ccc3c(c2CF)Oc2cc(N4CCN(C(=O)CCC[P+](c5ccccc5)(c5ccccc5)c5ccccc5)CC4)ccc2C32OC(=O)c3ccccc32)OC1(C)C.[Br-] (stereo not shown) [MitoPY1-FM, MitoPY1 Fluoromethyl]
- probe fluorescence in mitochondria of HeLa cells exposed to electron transport chain inhibitors vs untreated (HeLa cells [1]; MitoPY1-FM 5 μM, Antimycin (1 μM) or Rotenone (1 μM) 24 h): patent H2O2-dependent fluorescence increases
- localisation of probe fluorescence in fixed HeLa cells co-stained with Tom20 antibody (HeLa cells [1]; antimycin A exposed, fixed cells): enhanced on mitochondria
- H2O2-dependent fluorescent labeling of BSA [2]: fluorescent BSA-associated band was observed only under conditions with H2O2
- selectivity of fluorescence response for H2O2 over other ROS and RNS [3]: highly selective response for H2O2
- fluorescence response after treatment with H2O2 [4]: clear fluorescence enhancement
- localisation by co-staining with MitoBright LT Green (HeLa cells [5]; HeLa cells, H2O2 (1 mM)): overlapped with MitoBright LT

SMILES: COc1ccc2c(c1)Oc1c(ccc(B3OC(C)(C)C(C)(C)O3)c1CF)C21OC(=O)c2ccccc21 (stereo not shown) [PG1-FM, Peroxy Green-1 Fluoromethyl]
- probe fluorescence in EGF-stimulated A431 cells vs control (A431 cells; PG1-FM 10 μM, EGF 1 μg/mL 30 min, confocal): clear increase in fluorescence
- probe fluorescence in PMA-treated RAW 264.7 cells vs control (RAW 264.7 macrophages): higher PG1-FM and PR1-FM fluorescence relative to control cells
- H2O2-dependent fluorescent labeling of BSA [2]: fluorescent BSA-associated band was observed only under conditions with H2O2
- selectivity of fluorescence response for H2O2 over other ROS and RNS [3]: highly selective response for H2O2
- fluorescence response after treatment with H2O2 [4]: clear fluorescence enhancement
- probe fluorescence in HeLa cells on exogenous H2O2 treatment (HeLa cells [5]): fluorescence increase in the whole cells
- probe fluorescence in paraquat-exposed vs untreated HeLa cells (HeLa cells [6]): patent H2O2-dependent fluorescence increases

SMILES: CN(C)c1ccc2c(c1)[Si](C)(C)c1c(ccc(B3OC(C)(C)C(C)(C)O3)c1CF)C21OC(=O)c2ccccc21 (stereo not shown) [PR1-FM, Peroxy Red-1 Fluoromethyl]
- probe fluorescence in PMA-treated RAW 264.7 cells vs control (RAW 264.7 macrophages): higher PG1-FM and PR1-FM fluorescence relative to control cells
- H2O2-dependent fluorescent labeling of BSA [2]: fluorescent BSA-associated band was observed only under conditions with H2O2
- selectivity of fluorescence response for H2O2 over other ROS and RNS [3]: highly selective response for H2O2
- probe fluorescence in zebrafish post-cut vs pre-cut of tail fin (zebrafish; larvae 2 dpf, PR1-FM 5 μM overnight): patently higher fluorescence signals in post-cut condition
- fluorescence response after treatment with H2O2 [4]: clear fluorescence enhancement
- probe fluorescence in HeLa cells on exogenous H2O2 treatment (HeLa cells [5]): fluorescence increase in the whole cells
